According to patent US20240425524A1, “SPIROTRICYCLE RIPK1 INHIBITORS AND METHODS OF USES THEREOF” (Merck Sharp & Dohme LLC, priority 2021, published 2024):

target: RIPK1 (Homo sapiens (Human), UniProt Q13546); experiment: RIPK1-ADP-Glo Enzymatic Assay; type: biochemical; conditions: recombinant GST-RIPK1 kinase domain (residues 1-327), 25 nM, ten-point titration, 30 minutes pre-incubation
Protocol: The enzymatic activity of RIPK1 was measured using an assay derived from ADP-Glo kit (™Promega), which provides a luminescent-based ADP detection system. Specifically, the ADP generated by RIPK1 kinase was proportionally detected as luminescent signals in a homogenous fashion. In this context, the assessment of the inhibitory effect of small molecules (EC50) was measured by the effectiveness of the compounds to inhibit the ATP to ADP conversion by RIPK1.
In this assay, the potency (EC50) of each compound was determined from a ten-point (1:3 serial dilution: top compound concentration of 100000 nM) titration curve using the following outlined procedure. To each well of a white ProxiPlus 384 well-plate, 30 nL of compound (1% DMSO in final assay volume of 3 μL) was dispensed, followed by the addition of 2 μL of 1x assay buffer (25 mM Hepes 7.3, 20 mM MgCl2, 50 mM NaCl, 1 mM DTT, 0.005% Tween20, and 0.02% BSA) containing 37.5 nM of GST-RIPK1 (recombinant GST-RIPK1 kinase domain (residues 1-327) enzyme produced from baculovirus-transfected Sf21 cells: MW=62 kDa). Plates were placed in an ambient temperature humidified chamber for a 30 minutes pre-incubation with compound. Subsequently, each reaction was initiated by the addition of 1 μL 1× assay buffer containing […] dephosphorylated-MBP substrate. The final reaction in each well of 3 μL consists of 25 nM of GST-RIPK1, 300 µM ATP, and 3 μM dephosphorylated-MBP. Kinase reactions were allowed to proceed for 150 minutes prior to adding ADP-Glo reagents per Promega's outlined kit protocol. Dose-response curves were generated by plotting percent effect (% product conversion: Y-axis) vs. Logio compound concentrations (X-axis). EC50 values were calculated using a non-linear regression, four-parameters sigmoidal dose-response model and are provided for example compounds of the invention (labeled “RIPK1 EC50 (nM)” throughout the above examples).

Chain of RIPK1 (Q13546 1-327): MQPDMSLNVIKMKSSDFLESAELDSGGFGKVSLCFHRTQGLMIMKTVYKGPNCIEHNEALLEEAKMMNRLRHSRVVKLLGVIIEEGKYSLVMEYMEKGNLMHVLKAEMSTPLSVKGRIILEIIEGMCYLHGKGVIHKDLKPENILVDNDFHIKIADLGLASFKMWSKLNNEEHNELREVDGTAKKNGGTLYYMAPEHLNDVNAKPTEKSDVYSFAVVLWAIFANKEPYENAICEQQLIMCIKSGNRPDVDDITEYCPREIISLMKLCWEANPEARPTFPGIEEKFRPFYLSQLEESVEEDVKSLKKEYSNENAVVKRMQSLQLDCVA

SMILES	EC50 [nM]
O=C1N2[C@H](c3cc(F)cc(F)c3)CCN2CC12CCN(c1cc(O)ncn1)CC2 [Example 1.2, (7′S)-7′-(3,5-difluorophenyl)-1-(6-hydroxypyrimidin-4-yl)dihydro-1′H,3′H,5′H-spiro[piperidine-4,2′-pyrazolo[1,2-a]pyrazol]-1′-one]	151
O=C1N2[C@H](c3cc(F)cc(F)c3)CCN2CC12CCN(c1cc(F)ccn1)CC2 [Example 1.3, (7′S)-7′-(3,5-difluorophenyl)-1-(4-fluoropyridin-2-yl)dihydro-1′H,3′H,5′H-spiro[piperidine-4,2′-pyrazolo[1,2-a]pyrazol]-1′-one]	19
O=C1N2[C@H](c3cc(F)cc(F)c3)CCN2CC12CCN(c1cccc(CO)n1)CC2 [Example 1.4, (7′S)-7′-(3,5-difluorophenyl)-1-[6-(hydroxymethyl)pyridin-2-yl]dihydro-1′H,3′H,5′H-spiro [piperidine-4,2′-pyrazolo[1,2-a]pyrazol]-1′-one]	629
O=C1N2[C@H](c3cc(F)cc(F)c3)CCN2CC12CCN(c1cccc(Cl)n1)CC2 [Example 1.5, (7′S)-1-(6-chloropyridin-2-yl)-7′-(3,5-difluorophenyl)dihydro-1′H,3′H,5′H-spiro[piperidine-4,2′-pyrazolo[1,2-a]pyrazol]-1′-one]	24
Cc1cnc(N2CCC3(CC2)CN2CC[C@@H](c4cc(F)cc(F)c4)N2C3=O)nc1 [Example 1.6, (7′S)-7′-(3,5-difluorophenyl)-1-(5-methylpyrimidin-2-yl)dihydro-1′H,3′H,5′H-spiro[piperidine-4,2′-pyrazolo[1,2-a]pyrazol]-1′-one]	393
O=C1N2[C@H](c3cc(F)cc(F)c3)CCN2CC12CCN(c1cc(C(F)F)ncn1)CC2 [Example 1.7, (7′S)-1-[6-(difluoromethyl)pyrimidin-4-yl]-7′-(3,5-difluorophenyl)dihydro-1′H,3′H,5′H-spiro [piperidine-4,2′-pyrazolo[1,2-a]pyrazol]-1′-one]	39
O=C1N2[C@H](c3cc(F)cc(F)c3)CCN2CC12CCN(c1ccnc(C(F)F)n1)CC2 [Example 1.8, (7′S)-1-[2-(difluoromethyl)pyrimidin-4-yl]-7′-(3,5-difluorophenyl)dihydro-1′H,3′H,5′H-spiro[piperidine-4,2′-pyrazolo[1,2-a]pyrazol]-1′-one]	16
O=C1N2[C@H](c3cc(F)cc(F)c3)CCN2CC12CCN(c1cc(F)ncc1F)CC2 [Example 1.9, (7′S)-7′-(3,5-difluorophenyl)-1-(2,5-difluoropyridin-4-yl)dihydro-1′H,3′H,5′H-spiro[piperidine-4,2′-pyrazolo[1,2-a]pyrazol]-1′-one]	37
O=C1N2[C@H](c3cc(F)cc(F)c3)CCN2CC12CCN(c1cc(Cl)ccn1)CC2 [Example 1.11, (7′S)-1-(4-chloropyridin-2-yl)-7′-(3,5-difluorophenyl)dihydro-1′H,3′H,5′H-spiro[piperidine-4,2′-pyrazolo[1,2-a]pyrazol]-1′-one]	28
O=C1N2[C@H](c3cc(F)cc(F)c3)CCN2CC12CCN(c1cccc(F)n1)CC2 [Example 1.12, (7′S)-7′-(3,5-difluorophenyl)-1-(6-fluoropyridin-2-yl)dihydro-1′H,3′H,5′H-spiro[piperidine-4,2′-pyrazolo[1,2-a]pyrazol]-1′-one]	29
O=C1N2[C@H](c3cc(F)cc(F)c3)CCN2CC12CCN(c1ncnc3ccsc13)CC2 [Example 1.13, (S)-7′-(3,5-difluorophenyl)-1-(thieno[3,2-d]pyrimidin-4-yl)dihydro-1′H,3′H,5′H-spiro[piperidine-4,2′-pyrazolo[1,2-a]pyrazol]-1′-one]	16
CSc1cc(N2CCC3(CC2)CN2CC[C@@H](c4cc(F)cc(F)c4)N2C3=O)ncn1 [Example 1.14, (S)-7′-(3,5-difluorophenyl)-1-(6-(methylthio)pyrimidin-4-yl)dihydro-1′H,3′H,5′H-spiro[piperidine-4,2′-pyrazolo[1,2-a]pyrazol]-1′-one]	17
Cc1cc(N2CCC3(CC2)CN2CC[C@@H](c4cc(F)cc(F)c4)N2C3=O)nc(C#N)n1 [Example 1.16, (S)-4-(7′-(3,5-difluorophenyl)-1′-oxodihydro-1′H,3′H,5′H-spiro[piperidine-4,2′-pyrazolo[1,2-a]pyrazol]-1-yl)-6-methylpyrimidine-2-carbonitrile]	67
O=C1N2[C@H](c3cc(F)cc(F)c3)CCN2CC12CCN(c1cc(-n3cccn3)ncn1)CC2 [Example 1.17, (S)-1-(6-(1H-pyrazol-1-yl)pyrimidin-4-yl)-7′-(3,5-difluorophenyl)dihydro-1′H,3′H,5′H-spiro[piperidine-4,2′-pyrazolo[1,2-a]pyrazol]-1′-one]	20
O=C1N2[C@H](c3cc(F)cc(F)c3)CCN2CC12CCN(c1cc(-n3ccnc3)ncn1)CC2 [Example 1.18, (S)-1-(6-(1H-imidazol-1-yl)pyrimidin-4-yl)-7′-(3,5-difluorophenyl)dihydro-1′H,3′H,5′H-spiro[piperidine-4,2′-pyrazolo[1,2-a]pyrazol]-1′-one]	27
Cc1cn(-c2cc(N3CCC4(CC3)CN3CC[C@@H](c5cc(F)cc(F)c5)N3C4=O)ncn2)cn1 [Example 1.19, (S)-7′-(3,5-difluorophenyl)-1-(6-(4-methyl-1H-imidazol-1-yl)pyrimidin-4-yl)dihydro-1′H,3′H,5′H-spiro [piperidine-4,2′-pyrazolo[1,2-a]pyrazol]-1′-one]	37
CCc1nccc(N2CCC3(CC2)CN2CC[C@@H](c4cc(F)cc(F)c4)N2C3=O)n1 [Example 1.20, (S)-7′-(3,5-difluorophenyl)-1-(2-ethylpyrimidin-4-yl)dihydro-1′H,3′H,5′H-spiro[piperidine-4,2′-pyrazolo[1,2-a]pyrazol]-1′-one]	159
Cn1nccc1-c1cc(N2CCC3(CC2)CN2CC[C@@H](c4cc(F)cc(F)c4)N2C3=O)ncn1 [Example 1.21, (S)-7′-(3,5-difluorophenyl)-1-(6-(1-methyl-1H-pyrazol-5-yl)pyrimidin-4-yl)dihydro-1′H,3′H,5′H-spiro[piperidine-4,2′-pyrazolo[1,2-a]pyrazol]-l′-one]	15
CSc1cnc(N2CCC3(CC2)CN2CC[C@@H](c4cc(F)cc(F)c4)N2C3=O)nc1 [Example 1.22, (S)-7′-(3,5-difluorophenyl)-1-(5-(methylthio)pyrimidin-2-yl)dihydro-1′H,3′H,5′H-spiro [piperidine-4,2′-pyrazolo[1,2-a]pyrazol]-1′-one]	89
COc1nc(N2CCC3(CC2)CN2CC[C@@H](c4cc(F)cc(F)c4)N2C3=O)ncc1C [Example 1.23, (S)-7′-(3,5-difluorophenyl)-1-(4-methoxy-5-methylpyrimidin-2-yl)dihydro-1′H,3′H,5′H-spiro[piperidine-4,2′-pyrazolo[1,2-a]pyrazol]-1′-one]	68
NC(=O)c1ccnc(N2CCC3(CC2)CN2CC[C@@H](c4cc(F)cc(F)c4)N2C3=O)n1 [Example 1.24, (S)-2-(7′-(3,5-difluorophenyl)-1′-oxodihydro-1′H,3′H,5′H-spiro[piperidine-4,2′-pyrazolo[1,2-a]pyrazol]-1-yl)pyrimidine-4-carboxamide]	136
O=C1N2[C@H](c3cc(F)cc(F)c3)CCN2CC12CCN(c1ncc(OC(F)F)cn1)CC2 [Example 1.25, (S)-1-(5-(difluoromethoxy)pyrimidin-2-yl)-7′-(3,5-difluorophenyl)dihydro-1′H,3′H,5′H-spiro[piperidine-4,2′-pyrazolo[1,2-a]pyrazol]-1′-one]	38
Cc1nc(N2CCC3(CC2)CN2CC[C@@H](c4cc(F)cc(F)c4)N2C3=O)ncc1OC(F)F [Example 1.26, (S)-1-(5-(difluoromethoxy)-4-methylpyrimidin-2-yl)-7′-(3,5-difluorophenyl)dihydro-1′H,3′H,5′H-spiro [piperidine-4,2′-pyrazolo[1,2-a]pyrazol]-1′-one]	15
Cc1ccnc(N2CCC3(CC2)CN2CC[C@@H](c4cc(F)cc(F)c4)N2C3=O)n1 [Example 1.27, (S)-7′-(3,5-difluorophenyl)-1-(4-methylpyrimidin-2-yl)dihydro-1′H,3′H,5′H-spiro[piperidine-4,2′-pyrazolo[1,2-a]pyrazol]-1′-one]	637
CCc1cnc(N2CCC3(CC2)CN2CC[C@@H](c4cc(F)cc(F)c4)N2C3=O)nc1 [Example 1.28, (S)-7′-(3,5-difluorophenyl)-1-(5-ethylpyrimidin-2-yl)dihydro-1′H,3′H,5′H-spiro[piperidine-4,2′-pyrazolo[1,2-a]pyrazol]-1′-one]	409
O=C1N2[C@H](c3cc(F)cc(F)c3)CCN2CC12CCN(c1ncc(F)cn1)CC2 [Example 1.29, (S)-7′-(3,5-difluorophenyl)-1-(5-fluoropyrimidin-2-yl)dihydro-1′H,3′H,5′H-spiro[piperidine-4,2′-pyrazolo[1,2-a]pyrazol]-1′-one]	84
